This note sets out measurements from PubChem BioAssay AID624258 (Broad Institute, 2012).

Several values for one entry are separate records, joined by “and”; a condition that tells them apart may be missing. Equal entries are not always repeated. Activity calls are given as the source filed them. No rule for the calls is given here.

This test in a line: SKN7 mediated toxicity in Saccharomyces cerevisiae, growth rescue counterscreen, dose confirmation (AID 624258).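 Also: growth read after three days of incubation at 30 °C; 0% = median of neutral control wells.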 Conditions: S. cerevisiae SKN7-toxicity growth rescue, plate reader. (A counterscreen serves to expose hits that act by an unwanted route or on another target.)

As to `Cc1ccc(S(=O)(=O)/N=C2/C=C(Sc3ncn[nH]3)C(=O)c3ccccc32)cc1`, the growth rescue activity (at 19.5 µM (top of the series)) was 20.8% (inactive). Turning to `CC1=NN(C(N)=S)C(=O)C1N=Nc1cccc(Cl)c1C` (configuration not stated), for the setting “at 19.5 µM (top of the series)”, the growth rescue activity was -42.1% (inactive). As to `CCCCCCCc1ccc(-c2ccc(O)cc2)nc1`, the growth rescue activity (at 19.5 µM (top of the series)) was -79.8% (inactive). On to `CC(=O)c1c(O)ccc2c(-c3ccccc3)cc(=O)oc12`, for which the growth rescue activity (at 19.5 µM (top of the series)) is -69.1% (inactive).

With `Cc1onc(-c2ccccc2)c1C(=O)NC(=S)NNC(=O)c1ccc(O)cc1O`, the growth rescue activity (at 19.5 µM (top of the series)) is -33.4% (inactive). The same measure, in the same setting: the value for `CC(=O)NC(c1ccc(C)cc1)c1cc([N+](=O)[O-])c2cccnc2c1O` (configuration not stated) was 61% (inactive). For the molecule `C=CCc1cccc(C=Nc2cc(Br)ccc2O)c1O`, the growth rescue activity (at 19.5 µM (top of the series)) was -45% (inactive). On the same count and under the same terms, the value for `CCC(C)c1ccc(NC(=S)NCCn2cc(Br)cn2)cc1` (configuration not stated) was -33.1% (inactive); that for `CCCOc1ccc2ccccc2c1/C=C1\SC(=O)NC1=O` was -39.3% (inactive); that for `CN(C)CCCNC(=O)c1ccc(-c2nc(-c3ccc(Cl)cc3)cs2)cc1` was 0.817% (inactive).

For `COc1cc2cnc(-c3ccccc3)c(C(=O)c3ccc(F)cc3)c2cc1OC`, under “at 19.5 µM (top of the series)”, the growth rescue activity is 2.41% (inactive). With `Clc1nc(-c2ccccn2)nc2scc(-c3ccccc3)c12`, the growth rescue activity (at 19.5 µM (top of the series)) is -76.2% (inactive). Same read-out and setting: in the case of `O=C(CC1CC2CCC1C2)Nc1nc(-c2ccccn2)cs1` (configuration not stated) it was -53.4% (inactive); in that of `Cn1c(SCC(=O)N2c3ccccc3Sc3ccc(Cl)cc32)nnc1-c1ccco1`, -51.2% (inactive); in that of `Clc1ccc(COC(Cn2ccnc2)c2ccc(Cl)cc2Cl)c(Cl)c1` (configuration not stated), -74.2% (inactive) and -75.5% (inactive). `C=CCc1ccc(O)c(-c2ccc(O)c(CC=C)c2)c1`: the growth rescue activity (at 19.5 µM (top of the series)) is -65.1% (inactive). Regarding `O/N=C(\c1ccc(Cl)cc1)c1cc2ccccc2o1`, the growth rescue activity (at 19.5 µM (top of the series)) is 3.39% (inactive). Same read-out and setting: in the case of `O=CC1=C(c2ccccc2)Oc2ccccc2O1` it was -88.1% (inactive); in that of `O=C(Nc1ccc(Cl)cc1C(=O)Nc1ccc(Br)cn1)c1ccco1`, -90.7% (inactive). On to `CCOC(=O)c1nnn(-c2ccc([N+](=O)[O-])cc2[N+](=O)[O-])c1C`, for which the growth rescue activity (at 19.5 µM (top of the series)) is 17.3% (inactive).

For `CCN1/C(=C/c2sc(-c3ccccc3C)c[n+]2C)Sc2ccccc21`, under “at 19.5 µM (top of the series)”, the growth rescue activity was -60.6% (inactive). `O=P(Nc1cccnc1)(Oc1ccccc1Cl)Oc1ccccc1Cl`: the growth rescue activity (at 19.5 µM (top of the series)) is -59% (inactive). As for `CC(C)(C)C(=O)N1CCN(c2ccc([N+](=O)[O-])cc2Cl)CC1`, for the setting “at 6.8 µM (top of the series)”, the growth rescue activity was -14.7% (inactive). `O=S(=O)(c1ccc(Oc2ccc(Br)cc2)cc1)N1CCOCC1`: the growth rescue activity (at 19.5 µM (top of the series)) was 9.57% (inactive). The same measure, in the same setting: in the case of `O=C1c2cccc3cc([N+](=O)[O-])cc(c23)C(=O)N1CC1CCCO1` (configuration not stated) it was 23.2% (inactive). The same measure, in the same setting: the value for `S=C(Nc1ccc(Oc2ccccc2)cc1)NC1CCCCCC1` was -9.53% (inactive); that for `COc1cccc(C(=O)Nc2sc(C(C)C)cc2C(N)=O)c1OC` was 93.8% (inactive); that for `O=[N+]([O-])c1cccc(C=NNc2ccc3ccccc3n2)c1O` was -79.2% (inactive). Same read-out and setting: in the case of `CN(C)c1ccc(C=c2c3ccccc3n3c2cc(-c2ccc(Cl)cc2)[n+]3C)cc1` it was -52.4% (inactive); in that of `CCO/C=C1/C(=O)N(Cc2ccccc2)C(=O)c2ccccc21`, 2.35% (inactive). On to `O=C1Nc2c(Br)cccc2C1=O`, for which, for the setting “at 19.5 µM (top of the series)”, the growth rescue activity is -9.27% (inactive).

Regarding `COc1ccc(OCC(=O)NNC(=S)NC(=O)C2CCCCC2)cc1`, the growth rescue activity (at 19.5 µM (top of the series)) is -64.8% (inactive).

As to `Cc1ccc(S(=O)(=O)/N=C2/C=C(C3C(=O)CC(C)(C)CC3=O)C(=O)c3ccccc32)cc1`, where the note is “at 19.5 µM (top of the series)”, the growth rescue activity is 18.5% (inactive). The same measure, in the same setting: in the case of `Cc1ccc(NS(=O)(=O)c2ccc(N3CCN(c4ccc(O)cc4)CC3)c([N+](=O)[O-])c2)c(C)c1` it was -52.6% (inactive); in that of `Cn1c(N=Nc2ccccc2)nc2ccccc21`, -85.7% (inactive); in that of `Cc1cccc2sc(NNC(=O)c3ccc(S(=O)(=O)N4CCCC(C)C4)cc3)nc12` (configuration not stated), -51.9% (inactive).

For the molecule `O=C(O)/C(=C\c1ccc(F)cc1)c1ccc(-c2ccccc2)cc1`, for the setting “at 19.5 µM (top of the series)”, the growth rescue activity is -66.8% (inactive).

`Oc1c(Cl)cc(Cl)cc1/C=N/NC(=S)NC1CC2C=CC1C2` (configuration not stated): under “at 19.5 µM (top of the series)”, the growth rescue activity is -42.5% (inactive). The same measure, in the same setting: in the case of `O=[N+]([O-])c1ccc(Sc2ncccn2)c([N+](=O)[O-])c1` it was -6.92% (inactive).

For `O=C(c1cccs1)c1no[n+]([O-])c1C(=O)c1cccs1`, the growth rescue activity (at 19.5 µM (top of the series)) was -87.1% (inactive). For `CCOc1ccc(N/N=C(/C#N)C(N)=O)cc1`, the growth rescue activity (at 19.5 µM (top of the series)) was -49.6% (inactive). With `Cc1cc(OCc2cccc(S(=O)(=O)N3CCOCC3)c2)ccc1Cl`, under “at 19.5 µM (top of the series)”, the growth rescue activity was 66.7% (inactive).
